According to patent US8802597B2, “Herbicidal pyrimidines” (E I du Pont de Nemours and Company, priority 2003, dated 2014):

Columns and labels:
Type in all cases: in vivo
[1] = test system: cocklebur (Xanthium strumarium); test: Test C pre/postemergence; details: for Cocklebur plant response rating: scale 0 to 100 (0 no effect, 100 complete control)
Description: (§1) Seeds or nutlets of plant species selected from bermudagrass (Cynodon dactylon), Surinam grass (Brachiaria decumbens), cocklebur (Xanthium strumarium), corn (Zea mays), crabgrass (Digitaria sanguinalis), woolly cupgrass (Eriochloa villosa), giant foxtail (Setaria faberii), goosegrass (Eleusine indica), johnsongrass (Sorghum halepense), kochia (Kochia scoparia), lambsquarters (Chenopodium album), morningglory (Ipomoea coccinea), eastern black nightshade (Solanum ptycanthum), yellow nutsedge (Cyperus esculentus), pigweed (Amaranthus retroflexus), common ragweed (Ambrosia elatior), soybean (Glycine max), common (oilseed) sunflower (Helianthus annuus), and velvetleaf (Abutilon theophrasti) were planted and treated preemergence with test chemicals formulated in a non-phytotoxic solvent mixture which included a surfactant.
(§2) At the same time, plants selected from these crop and weed species and also winter barley (Hordeum vulgare), blackgrass (Alopecurus myosuroides), canarygrass (Phalaris minor), chickweed (Stellaria media), downy brome (Bromus tectorum), green foxtail (Setaria viridis), Italian ryegrass (Lolium multiflorum), wheat (Triticum aestivum), wild oat (Avena fatua) and windgrass (Apera spica-venti) were treated with postemergence applications of some of the test chemicals formulated in the same manner. Plants ranged in height from 2 to 18 cm (1- to 4-leaf stage) for postemergence treatments. Plant species in the flooded paddy test consisted of rice (Oryza sativa), umbrella sedge (Cyperus difformis), duck salad (Heteranthera limosa) and barnyardgrass (Echinochloa crus-galli) grown to the 2-leaf stage for testing. Treated plants and controls were maintained in a greenhouse for 12 to 14 days, after which time all species were compared to controls and visually evaluated. Plant response ratings, summarized in Table C, are based on a scale of 0 to 100 where 0 is no effect and 100 is complete control. A dash (-) response means no test result.

[2] = test system: common ragweed (Ambrosia elatior); test: Test C pre/postemergence; details: for Ragweed plant response rating: scale 0 to 100 (0 no effect, 100 complete control)
Description: as §1, §2

corn (Zea mays) = test: Test C pre/postemergence; details: for Corn plant response rating: scale 0 to 100 (0 no effect, 100 complete control)
Description: as §1, §2

[3] = test system: lambsquarters (Chenopodium album); test: Test C pre/postemergence; details: for Lambsquarters plant response rating: scale 0 to 100 (0 no effect, 100 complete control)
Description: as §1, §2

[4] = test system: chickweed (Stellaria media); test: Test C postemergence; details: for Chickweed plant response rating: scale 0 to 100 (0 no effect, 100 complete control); for Plant response rating, Chickweed: scale 0 to 100
Description: as §1, §2

[5] = Postemergence, 250 g ai/ha, scale 0 to 100
[6] = Preemergence, 31 g ai/ha, scale 0 to 100, 0 no effect, 100 complete control
[7] = Preemergence, 62 g ai/ha, scale 0 to 100, 0 no effect, 100 complete control
[8] = Preemergence, 125 g ai/ha, scale 0 to 100
[9] = Preemergence, 250 g ai/ha, scale 0 to 100
[10] = Postemergence, 500 g ai/ha, scale 0 to 100
[11] = Preemergence, 500 g ai/ha, scale 0 to 100

CC(C)COC(=O)c1nc(C2CC2)nc(N)c1Br [Compound 17]
Plant response rating (scale of 0 to 100), Cocklebur ([1]; Postemergence, 31 g ai/ha): 95 | Cocklebur plant response rating ([1]; Postemergence, 62 g ai/ha): 100 | Cocklebur plant response rating ([1]; Postemergence, 125 g ai/ha): 100 | Plant response rating, Cocklebur [1, 5]: 100 | Plant response rating, Cocklebur [1, 6]: 75 | Plant response rating, Cocklebur [1, 7]: 90 | Plant response rating, Cocklebur [1, 8]: 95 | Plant response rating, Cocklebur [1, 9]: 100 | Plant response rating (scale of 0 to 100), Ragweed ([2]; Postemergence, 31 g ai/ha): 65 | Ragweed plant response rating ([2]; Postemergence, 62 g ai/ha): 85 | Ragweed plant response rating ([2]; Postemergence, 125 g ai/ha): 95 | Plant response rating, Ragweed [2, 5]: 95 | Plant response rating, Ragweed [2, 6]: 70 | Plant response rating, Ragweed [2, 7]: 80 | Plant response rating, Ragweed [2, 8]: 95 | Plant response rating, Ragweed [2, 9]: 100 | Plant response rating (scale of 0 to 100), Corn (corn (Zea mays); Postemergence, 31 g ai/ha): 0 | Corn plant response rating (corn (Zea mays); Postemergence, 62 g ai/ha): 0 | Corn plant response rating (corn (Zea mays); Postemergence, 125 g ai/ha): 0 | Plant response rating, Corn (corn (Zea mays); [5]): 20 | Plant response rating, Corn (corn (Zea mays); [6]): 0 | Plant response rating, Corn (corn (Zea mays); [7]): 20 | Plant response rating, Corn (corn (Zea mays); [8]): 35 | Plant response rating, Corn (corn (Zea mays); [9]): 75 | Plant response rating (scale of 0 to 100), Lambsquarters ([3]; Postemergence, 31 g ai/ha): 95 | Lambsquarters plant response rating ([3]; Postemergence, 62 g ai/ha): 100 | Lambsquarters plant response rating ([3]; Postemergence, 125 g ai/ha): 100 | Plant response rating, Lambsquarters [3, 5]: 100 | Plant response rating, Lambsquarters [3, 6]: 95 | Plant response rating, Lambsquarters [3, 7]: 95 | Plant response rating, Lambsquarters [3, 8]: 100 | Plant response rating, Lambsquarters [3, 9]: 100 | Plant response rating (scale of 0 to 100), Chickweed ([4]; 31 g ai/ha): 0 | Chickweed plant response rating ([4]; 62 g ai/ha): 0 | Plant response rating, Chickweed ([4]; 125 g ai/ha): 55 | Plant response rating, Chickweed ([4]; 250 g ai/ha): 85

COC(=O)c1nc(C2CC2C)nc(N)c1Br (stereo not drawn) [Compound 28]
Cocklebur plant response rating ([1]; Postemergence, 62 g ai/ha): 85 | Cocklebur plant response rating ([1]; Postemergence, 125 g ai/ha): 95 | Plant response rating, Cocklebur [1, 5]: 95 | Plant response rating, Cocklebur [1, 10]: 100 | Plant response rating, Cocklebur [1, 7]: 90 | Plant response rating, Cocklebur [1, 8]: 95 | Plant response rating, Cocklebur [1, 9]: 95 | Plant response rating, Cocklebur [1, 11]: 100 | Ragweed plant response rating ([2]; Postemergence, 62 g ai/ha): 65 | Ragweed plant response rating ([2]; Postemergence, 125 g ai/ha): 80 | Plant response rating, Ragweed [2, 5]: 90 | Plant response rating, Ragweed [2, 10]: 95 | Plant response rating, Ragweed [2, 7]: 65 | Plant response rating, Ragweed [2, 8]: 95 | Plant response rating, Ragweed [2, 9]: 100 | Plant response rating, Ragweed [2, 11]: 100 | Corn plant response rating (corn (Zea mays); Postemergence, 62 g ai/ha): 0 | Corn plant response rating (corn (Zea mays); Postemergence, 125 g ai/ha): 0 | Plant response rating, Corn (corn (Zea mays); [5]): 0 | Plant response rating, Corn (corn (Zea mays); [10]): 0 | Plant response rating, Corn (corn (Zea mays); [7]): 0 | Plant response rating, Corn (corn (Zea mays); [8]): 0 | Plant response rating, Corn (corn (Zea mays); [9]): 0 | Plant response rating, Corn (corn (Zea mays); [11]): 0 | Lambsquarters plant response rating ([3]; Postemergence, 62 g ai/ha): 60 | Lambsquarters plant response rating ([3]; Postemergence, 125 g ai/ha): 75 | Plant response rating, Lambsquarters [3, 5]: 85 | Plant response rating, Lambsquarters [3, 10]: 95 | Plant response rating, Lambsquarters [3, 7]: 95 | Plant response rating, Lambsquarters [3, 8]: 100 | Plant response rating, Lambsquarters [3, 9]: 100 | Plant response rating, Lambsquarters [3, 11]: 100 | Chickweed plant response rating ([4]; 62 g ai/ha): 0 | Chickweed plant response rating ([4]; 125 g ai/ha): 0 | Plant response rating, Chickweed ([4]; 250 g ai/ha): 15 | Plant response rating, Chickweed ([4]; 500 g ai/ha): 20
